Among the test systems are MDA-MB-231 breast; UO-31 renal; BT-549 breast; OVCAR-3 ovarian; SR leukemia; HCC-2998 colon; HS 578T breast; PC-3 prostate; SK-MEL-28 melanoma; HCT-116 colon; SK-MEL-5 melanoma.
Common to all, as to test: growth of human tumour cells (NCI), 48 h

Structures are written as SMILES.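 Interpolation was linear, between the two tested concentrations surrounding the appropriate level; five concentrations were tested over 48 hours in 96-well plates. The concentration for full growth arrest is given as TGI.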

As for `O=C(CNc1ccccn1)Nn1cnc2ccc(S(=O)(=O)Nc3ccccn3)cc2c1=O`, the TGI in the experiment on MDA-MB-231 breast, in the experiment with UO-31 renal, with BT-549 breast, in the experiment on OVCAR-3 ovarian, in the experiment on SR leukemia and with HCC-2998 colon was > 100 µM in each case. The TGI in the experiment on HS 578T breast, in the experiment on PC-3 prostate, in the experiment with SK-MEL-28 melanoma and in the experiment with HCT-116 colon was > 100 µM throughout.
On to `O=c1[nH]/c(=C/c2ccc3c(c2)OCO3)c(=O)[nH]/c1=C/c1ccc2c(c1)OCO2`, for which the TGI with SK-MEL-5 melanoma, with MDA-MB-231 breast, with UO-31 renal, in the experiment on BT-549 breast, in the experiment with OVCAR-3 ovarian and in the experiment on HCC-2998 colon was > 10 µM each time. The TGI in the experiment with HS 578T breast, with PC-3 prostate, with SK-MEL-28 melanoma and with HCT-116 colon was > 10 µM in each case.
As for `CC(C)OC(=O)c1ccc(NCc2cc(O)ccc2O)cc1`, the TGI in the experiment with SK-MEL-5 melanoma came out at 10.8 µM; in the experiment with MDA-MB-231 breast, 9.59 µM; in the experiment on UO-31 renal, 2.91 µM; in the experiment with BT-549 breast it was 12.4 µM; with OVCAR-3 ovarian it was 4.71 µM; with SR leukemia it was 10.2 µM. Moreover, the TGI with HCC-2998 colon was 28.6 µM; with HS 578T breast it was > 29.6 µM; in the experiment on PC-3 prostate it was 3.99 µM; in the experiment with SK-MEL-28 melanoma it was 29.3 µM; in the experiment with HCT-116 colon, 19.8 µM.
On to `CC(C)(C)OC(=O)NC1CCCC1C(=O)C1=CCCC1` (stereo unspecified), for which the TGI with SK-MEL-5 melanoma, with MDA-MB-231 breast, in the experiment on BT-549 breast, with OVCAR-3 ovarian, with SR leukemia and with HCC-2998 colon was > 100 µM in each case. Moreover, the TGI in the experiment with HS 578T breast, in the experiment on PC-3 prostate, in the experiment with SK-MEL-28 melanoma and in the experiment with HCT-116 colon was > 100 µM throughout.
With `O=c1[nH]nc(Cc2ccccc2)n1/N=C/c1cccs1`, the TGI with MDA-MB-231 breast, in the experiment with UO-31 renal, in the experiment with BT-549 breast, with OVCAR-3 ovarian, in the experiment on HCC-2998 colon and with HS 578T breast was > 100 µM throughout. In addition, the TGI with PC-3 prostate, in the experiment with SK-MEL-28 melanoma and in the experiment with HCT-116 colon was > 100 µM in each case.
In the case of `Cc1cccc(C2ON=C(c3ccccc3)N2C23CC4CC(CC(C4)C2)C3)c1` (stereo unspecified), the TGI in the experiment with SK-MEL-5 melanoma, in the experiment with MDA-MB-231 breast, in the experiment with BT-549 breast, in the experiment on OVCAR-3 ovarian, in the experiment with SR leukemia and with HCC-2998 colon was > 10 µM each time. Besides, the TGI with HS 578T breast, in the experiment on PC-3 prostate, in the experiment with SK-MEL-28 melanoma and in the experiment with HCT-116 colon was > 10 µM throughout.
On to `CSc1nc(=S)[nH]c2c1c(C)nn2-c1ccccc1`, for which the TGI was 27.8 µM in the experiment on SK-MEL-5 melanoma; 64.9 µM in the experiment on MDA-MB-231 breast; 69.8 µM in the experiment on UO-31 renal; > 100 µM with BT-549 breast; > 100 µM with OVCAR-3 ovarian; 42.8 µM in the experiment on SR leukemia. In addition, the TGI was > 100 µM in the experiment on HCC-2998 colon; > 100 µM with HS 578T breast; 68.3 µM in the experiment with PC-3 prostate; > 100 µM with SK-MEL-28 melanoma; 43.2 µM in the experiment with HCT-116 colon.
Turning to `Brc1ccc(C2C3CSc4ccccc4C3=NN2c2ccccc2)cc1` (stereo unspecified), the TGI in the experiment on SK-MEL-5 melanoma, with MDA-MB-231 breast, in the experiment with UO-31 renal, in the experiment with BT-549 breast, in the experiment with OVCAR-3 ovarian and in the experiment with SR leukemia was > 100 µM in each case. In addition, the TGI with HS 578T breast, with PC-3 prostate, in the experiment on SK-MEL-28 melanoma and with HCT-116 colon was > 100 µM throughout.
In the case of `O=C1N=C2SC=C(NC(=S)Nc3ccccc3)N2NC12c1ccccc1-c1ccccc12`, the TGI with SK-MEL-5 melanoma, in the experiment with MDA-MB-231 breast, in the experiment with UO-31 renal, in the experiment with BT-549 breast, with SR leukemia and in the experiment with HCC-2998 colon was > 10 µM in each case. Further, the TGI with HS 578T breast, in the experiment with PC-3 prostate, in the experiment with SK-MEL-28 melanoma and with HCT-116 colon was > 10 µM each time.
Consider `CC1(C)CCN2C(=O)C34CCCC3CC21S4` (stereo unspecified), for which the TGI with SK-MEL-5 melanoma, with MDA-MB-231 breast, in the experiment with UO-31 renal, with BT-549 breast, in the experiment with OVCAR-3 ovarian and in the experiment with SR leukemia was > 100 µM each time. In addition, the TGI in the experiment on HS 578T breast, in the experiment on PC-3 prostate, in the experiment on SK-MEL-28 melanoma and in the experiment on HCT-116 colon was > 100 µM each time.
`CC(C)C1CNC(=O)C2(C=NC(C(C)C)CNC(=O)C3(C=N1)CCCO3)CCCO2` (stereo unspecified): the TGI with SK-MEL-5 melanoma, in the experiment on MDA-MB-231 breast, in the experiment with BT-549 breast, in the experiment with OVCAR-3 ovarian, in the experiment on SR leukemia and in the experiment with HCC-2998 colon was > 10 µM in each case. For the same molecule, the TGI in the experiment with HS 578T breast, in the experiment with PC-3 prostate, in the experiment with SK-MEL-28 melanoma and in the experiment on HCT-116 colon was > 10 µM each time.
As to `CC1(C)C2CCC3CC(CCC#N)CCC3C21C#N` (stereo unspecified), the TGI in the experiment on SK-MEL-5 melanoma, in the experiment on MDA-MB-231 breast, in the experiment on UO-31 renal, in the experiment on OVCAR-3 ovarian, in the experiment on SR leukemia and with HCC-2998 colon was > 100 µM throughout. The TGI with HS 578T breast, in the experiment on PC-3 prostate, in the experiment with SK-MEL-28 melanoma and in the experiment with HCT-116 colon was > 100 µM each time.
Consider `CC1=NN(c2nc(N)nc(NS(=O)(=O)c3cc(C)c(Cl)cc3S)n2)C(C)(C)C1`, for which the TGI in the experiment with SK-MEL-5 melanoma, in the experiment on UO-31 renal, with BT-549 breast, in the experiment on OVCAR-3 ovarian, with SR leukemia and in the experiment with HCC-2998 colon was > 10 µM each time. The TGI with HS 578T breast, in the experiment with PC-3 prostate, in the experiment on SK-MEL-28 melanoma and with HCT-116 colon was > 10 µM in each case.

(Values after PubChem BioAssay (NCI).)
